The target of this test is T1, Macrophage migration inhibitory factor (Homo sapiens, UniProt P14174).
T1 sequence (P14174 whole entry): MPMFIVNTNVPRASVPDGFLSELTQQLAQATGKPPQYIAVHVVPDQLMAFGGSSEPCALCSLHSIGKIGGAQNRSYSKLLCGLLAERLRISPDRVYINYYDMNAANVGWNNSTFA
Nature of the test: Inhibition of C-terminal His-tagged recombinant human MIF expressed in Escherichia coli BL21 (DE3) using 4-HPP as substrate preincubated for 10 mins followed by substrate addition by UV absorption spectrum analysis.

Results on one compound are retold here after BindingDB's records for doi:10.1021/acs.jmedchem.0c01160 (University of Groningen, 2020).

The term IC50 denotes the concentration that gives 50% inhibition.

Turning to `O=C(O)c1ccc(-c2ccc(-c3cc4ccc(O)cc4oc3=O)cc2)cc1`, the IC50 amounted to 71 nM.
